Laboratory results: publication PMC4523931, “Modulation of Aβ42 in vivo by γ-secretase modulator in primates and humans” (Alzheimer's Research & Therapy, 2015)

Key:
γ-secretase [1] = test: GSM activity in vitro: Aβ42 and total Aβ ELISA of conditioned media of CHO cells expressing APP-WT or APP-V717F; type: cell-based, Chinese hamster; conditions: for ED50 (in vitro GSM activity): Fig. 1
From the text: Conditioned media were collected and Aβ42 and total Aβ levels were quantified by ELISA analyses. […] All experiments were repeated at least twice. Results are presented as mean ± range. GSM gamma-secretase modulator

γ-secretase [2] = molecular target: T1, γ-secretase (Macaca fascicularis, UniProt Q8HXW5); test: Aβ levels in CSF and plasma of conscious cynomolgus monkeys after a single dose; type: in vivo, cynomolgus monkeys (Macaca fascicularis)
T1 construct: γ-secretase complex can be modulated in primates; from tissue; host or cells: living cynomolgus monkeys; Aβ read out in CSF and plasma
Experimental: The effects of drugs on CSF and plasma Aβ ratios in monkeys and plasma Aβ ratios in humans were analyzed by a two-way analysis of variance with a post hoc Bonferroni posttest (GraphPad Prism, La Jolla, CA, USA).
Aβ42, Aβ38 and total Aβ levels in CSF samples were measured. During the observation period, there was variation in Aβ levels in untreated animals (Fig. 2a–c) without a clear diurnal pattern, consistent with the reports from catheter studies in humans. Animals were then treated with drugs in subsequent weeks sequentially. Between each treatment, all animals were rested for 1 week to allow drug washout. […] In light of the CSF results, the effects of GSM-1 were mirrored in plasma. […] This was evident as early as 2 h following drug administration and plateaued starting at 4 h. GSM-1 reduced the ratio of Aβ42/Aβ40 up to 40 % at 6 h after dosing.
Cerebrospinal fluid (CSF) and plasma samples were collected at indicated time points and amyloid beta-peptide (Aβ) levels were measured. Levels of total Aβ (a), Aβ42 (b) and Aβ38 (c) were compared in CSF samples. […] The levels and ratios were normalized to baseline (time 0 or before drug dosing) and shown as percentages of baseline. Seven monkeys were used in the no-treatment group. […] Results are presented as mean ± SEM; *p < 0.05, **p < 0.001. GSM gamma-secretase modulator

γ-secretase [3] = molecular target: T1, γ-secretase; test: as above; type: in vivo, cynomolgus monkeys (Macaca fascicularis); conditions: monkey CSF, 30 mg/kg oral
γ-secretase [4] = system: γ-secretase; set-up: method as in PMID 17962197; conditions: APP transgenic mice, cited from earlier work
[5] = monkey, 100 mg/kg oral, first sampled time point, all but one animal
[6] = Plasma drug concentration in mice treated with ibuprofen for 3 days (literature); type: in vivo; conditions: Tg2576 (APP transgenic line), mouse, 50 mg/kg daily for 3 days, from 43 μM and ~5.5 % unbound, read-out: estimated unbound concentration in plasma
[7] = mild to moderate AD, 400 mg twice daily, 1 year; cited from earlier work
[8] = set-up: method as in PMID 12897211; conditions: mice, 50 mg/kg daily for 3 days, 2 h after the last dose; cited from earlier work
clinical = conditions: human
[9] = Adverse events in the human study; conditions: healthy humans, 800 mg IV single dose or placebo
γ-secretase [10] = system: γ-secretase; set-up: method as in PMID 11700559, PMID 12897211; conditions: Tg2576 mice, 50 mg/kg for 3 days; cited from earlier work
in vivo = conditions: female, cynomolgus monkey, po, 100 mg/kg
[11] = set-up: method as in PMID 17650315, PMID 20009055; conditions: late-phase human clinical trial; cited from earlier work

Q: Which results are given for `CC(C)CC[C@H](c1ccc(Cl)cc1)N1CC[C@@H](CC(=O)O)C[C@H]1c1ccc(C(F)(F)F)cc1` [GSM-1]?
A: effect on ratio of Aβ42 to total Aβ (γ-secretase [1]; CHO APP-WT or APP-V717F, 24 h, dose-dependent, p < 0.001): significantly reduced; concentration giving 50 % reduction of the ratio of Aβ42 to total Aβ (γ-secretase [1]; CHO cells expressing APP-WT or APP-V717F, 24 h incubation, ELISA): 0.2 µM; ED50 (in vitro GSM activity) (γ-secretase [1]): approximately 200 nM; time of maximum reduction in CSF (γ-secretase [2]; monkey CSF, 30 mg/kg oral): 8 to 12 h; effect on CSF total Aβ levels (γ-secretase [2]; monkey CSF, 30 mg/kg oral single dose): did not change; maximal increase in CSF Aβ38 levels (γ-secretase [2]; monkey CSF, 30 mg/kg oral single dose, 8 h postdosing): ~ 90%; maximal reduction in CSF Aβ42 levels (γ-secretase [2]; monkey CSF, 30 mg/kg oral single dose, 12 h postdosing): ~ 32%; maximal increase of the ratio of Aβ38 to total Aβ in CSF (γ-secretase [2]; monkey CSF, 30 mg/kg oral, after 8 h, p < 0.05): 70%; ratio of Aβ42 to total Aβ in CSF, relative to baseline (γ-secretase [2]; monkey CSF, single dose 30 mg/kg, baseline to postdosing): 65%; reduction of the ratio of Aβ42/Aβ40 in plasma (γ-secretase [2]; monkey plasma, 30 mg/kg oral, 6 h after dosing): up to 40%; time at which the decrease of plasma Aβ42/Aβ40 ratio was first evident (γ-secretase [2]; monkey plasma, 30 mg/kg oral, plateaued starting at 4 h): 2 h; ratio of Aβ42 to Aβ40 in plasma, relative to baseline (γ-secretase [2]; monkey plasma, single dose 30 mg/kg, baseline to postdosing): 60%; effect on ratio of Aβ42/Aβ40 in plasma (γ-secretase [2]; monkey plasma, single dose, Fig. 2f): markedly decreased; CSF Aβ38 level (mean ± SD) (γ-secretase [3]; 8 h postdosing, baseline 1033.3 ± 300.0): 1954.8 ± 698.6 pg/mL; CSF Aβ42 level (mean ± SD) (γ-secretase [3]; 12 h postdosing, baseline 267.1 ± 60.0): 183.5 ± 96.1 pg/mL; lowering of brain Aβ42 (γ-secretase [4]; single dose 3 mg/kg): 25%; reduction of brain Aβ42 (γ-secretase [4]; single dose 30 mg/kg): 70%; effect on Aβ38 levels (γ-secretase [4]; single dose): concomitantly increased

Q: For `CC(C)Cc1ccc(C(C)C(=O)O)cc1` (centres unmarked) [ibuprofen], which “time of highest concentrations in plasma and CSF” value [5] is on record?
A: The value was 2 h.

Q: And the “ED50 (in vitro GSM activity)” value (γ-secretase [1])?
A: The value was 250 to 500 µM.

Q: And the concentration at 3 days [6]?
A: Its concentration at 3 days is roughly 2370 nM.

Q: And the clinical benefit [7]?
A: Its clinical benefit is “no benefit”.

Q: And the “average plasma drug concentration” value [8]?
A: The value was 43 µM.

Q: What about the AUC(0-t) (clinical; both, in vivo, iv, 800 mg) of the same compound?
A: Its AUC(0-t) is 831 ± 156 µM·h.

Q: What about the “time of return of plasma levels to baseline” value (clinical; 800 mg IV) of the same compound?
A: The value was no more than 8 h.

Q: And the “time of highest plasma levels” value (clinical; 800 mg IV, first time sampled)?
A: The value was 1 h.

Q: And the “adverse events during the study period” value [9]?
A: Its value is “no adverse events were observed”.

Q: What about the “effect on Aβ40 levels (reduced or not)” value (γ-secretase [10]) of the same compound?
A: Its value is “not”.

Q: What about the “effect on Aβ42 levels” value (γ-secretase [10]) of the same compound?
A: Its value is “significantly reduced”.

Q: And the AUC(0-t) (in vivo; CSF)?
A: The AUC(0-t) was 36.4 ± 11.8 µM·h.

Q: What about the AUC(0-t) (in vivo; plasma) of the same compound?
A: Its AUC(0-t) is 3740 ± 924 µM·h.

Q: Which clinical efficacy [11] does the source give for `C[C@@H](C(=O)O)c1ccc(-c2ccccc2)c(F)c1` [tarenflurbil] here?
A: The clinical efficacy was “not to be effective”.
